Assay results from patent US4772587A, “Dipeptide derivative of fatty acid” (Suntory Limited, priority 1985, dated 1988).
Non-standard residues stand in square brackets, D forms with d. Residues, ends and D or L forms follow the SMILES beside them. *: point of attachment. Oleoyl = CCCCCCCC/C=C\CCCCCCCC(=O)*; Stearoyl = CCCCCCCCCCCCCCCCCC(=O)*; Palmitoyl = CCCCCCCCCCCCCCCC(=O)*; Nle = CCCC[CH](N)C(=O)O; Cbz = O=C(OCc1ccccc1)*

Experiments:
prolyl endopeptidase = prolyl endopeptidase (Elizabethkingia meningoseptica, UniProt P27028); assay: Measurement of anti-prolyl endopeptidase activity (decomposition of Z-glycyl-proline-β-naphthylamide); type: biochemical; conditions: substrate Z-glycyl-proline-β-naphthylamide, phosphate buffer pH 7.0
Sequence of prolyl endopeptidase (P27028 21-705): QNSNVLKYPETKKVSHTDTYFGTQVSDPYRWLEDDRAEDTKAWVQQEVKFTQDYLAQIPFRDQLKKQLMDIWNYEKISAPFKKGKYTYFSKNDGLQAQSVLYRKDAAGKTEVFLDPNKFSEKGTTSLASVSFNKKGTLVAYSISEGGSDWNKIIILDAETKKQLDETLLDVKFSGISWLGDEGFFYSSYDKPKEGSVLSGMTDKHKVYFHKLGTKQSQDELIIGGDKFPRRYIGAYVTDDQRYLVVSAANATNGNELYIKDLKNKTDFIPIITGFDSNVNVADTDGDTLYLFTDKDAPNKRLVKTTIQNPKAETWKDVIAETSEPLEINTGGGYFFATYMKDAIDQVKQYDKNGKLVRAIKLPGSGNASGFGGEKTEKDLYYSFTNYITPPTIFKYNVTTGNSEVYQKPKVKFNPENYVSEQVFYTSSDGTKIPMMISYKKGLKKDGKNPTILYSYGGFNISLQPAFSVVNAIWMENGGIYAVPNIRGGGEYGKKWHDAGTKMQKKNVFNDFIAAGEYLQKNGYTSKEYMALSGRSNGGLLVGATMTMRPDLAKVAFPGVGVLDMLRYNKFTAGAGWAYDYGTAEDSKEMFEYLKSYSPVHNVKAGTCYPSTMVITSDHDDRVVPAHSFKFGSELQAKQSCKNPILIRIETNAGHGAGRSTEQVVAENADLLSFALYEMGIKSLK
Protocol: The method of Yoshimoto and Tsuru (T. Yoshimoto and D. Tsuru, Agr. Biol. Chem. 42, 2417, 1978) was used to measure the anti-prolyl endopeptidase activities of several compounds of the present invention. A mixture of 0.0025M Z-glycyl-proline-β-naphthylamide (0.25 ml), 0.1M phosphate buffer (pH, 7.0; 0.99 ml) and a solution of a particular anti-prolyl endopeptidase compound (0.01 ml) was incubated in a test tube at 37° C. for 3 minutes. Thereafter, 0.1 ml of a solution of prolyl endopeptidase (0.2 U/ml) was added and the mixture was heated at 35° C. for 10 minutes. After the reaction, 2.0 ml of Triton X-100 in 1M acetate buffer (pH, 4.0) was added to the reaction mixture until the final concentration of the surfactant was 10%. The mixture was left at room temperature for 15 minutes and the absorbance (a) at 410 nm was measured.
A sample for blind test was prepared by using the buffer instead of the anti-prolyl endopeptidase compound and its absorbance (b) was also measured. The percent inhibition of prolyl endopeptidase was calculated by the formula: ((b-a)/b)×100, and the amount of a specific compound to achieve 50% inhibition (IC50) was determined.

[1] = test system: experimental amnesia caused in rats by scopolamine; assay: Preventive effect against experimental amnesia caused in rats by scopolamine (passive avoidance learning); type: in vivo, Wister male rats; conditions: for Avoidance time 24 hrs. later / Avoidance time 48 hrs. later / No. of amnesic rats/No. of rats tested / Percentage amnesia: scopolamine 3 mg/kg i.p. after learning
Protocol: Several of the anti-prolyl endopeptidase compounds of the present invention were checked for their ability to prevent the inhibition of long-term memory fixation by scopolamine. Solutions of physiological saline (0.3 ml) that contained selected compounds of the present inventions in varying amounts ([…], 0.25 mg, 0.1 mg, 0.025 mg and 0.010 mg/kg) were administered intraperitoneally once a day to Wister male rats (100-120 g). One hour after the administration, electric shocks (1.7 mA) were applied to the rats so that they would acquire passive avoidance learning. Immediately thereafter, scopolamine was administered intraperitoneally to each rat in an amount of 3 mg per kg of body weight.
The result of the test was assessed both 24 hours and 48 hours after the administration of scopolamine. The number of amnesic rats and of sound rats was counted for each of the control group (rats to which the test compounds had not been administered but to which only scopolamine and physiological saline had been administered intraperitoneally and the treated group (rats to which both the test compound and scopolamine had been administered). The results are shown in Table 3.

[2] = test system: experimental amnesia caused in rats by scopolamine; assay: as above; type: in vivo, Wister male rats; conditions: for Avoidance time 48 hrs. later: sample 1 mg/kg i.p., scopolamine 3 mg/kg i.p. after learning
[3] = administered orally (so in the source) in an amount of 1 mg/kg
[4] = administered orally (so in the source) in an amount of 0.1 mg/kg
[5] = administered orally (so in the source) in an amount of 0.025 mg/kg
[6] = dose of 0.01 mg/kg (orally as printed)

| Compound | IC50 (amount of compound to achieve 50% inhibition) (prolyl endopeptidase) | Avoidance time 24 hrs. later ([1]; sample 25 μg/kg i.p.) | Avoidance time 48 hrs. later ([1]; sample 25 μg/kg i.p.) | No. of amnesic rats/No. of rats tested ([1]; sample 25 μg/kg i.p.) | Percentage amnesia ([1]; sample 25 μg/kg i.p.) | Avoidance time 24 hrs. later ([1]; sample 100 μg/kg i.p.) | Avoidance time 48 hrs. later ([1]; sample 100 μg/kg i.p.) | No. of amnesic rats/No. of rats tested ([1]; sample 100 μg/kg i.p.) | Percentage amnesia ([1]; sample 100 μg/kg i.p.) | anti-amnesic action (in words) [2, 4] | anti-amnesic action (in words) [2, 5] | other results |
| --- | --- | --- | --- | --- | --- | --- | --- | --- | --- | --- | --- | --- |
| CCCCCCCC/C=C\CCCCCCCC(=O)NC(C)C(=O)N1CCCC1C=O (stereo not shown) [SUAM 1092, oleoyl-Ala-pro-CHO] | 12.0 ng/test tube |  |  |  |  |  |  |  |  |  |  |  |
| CCCCCCCC/C=C\CCCCCCCC(=O)NC(CC(C)C)C(=O)N1CCCC1C=O (stereo not drawn) [SUAM 1140, Oleoyl-Leu-Pro-CHO] (Oleoyl-Leu-Pro-aldehyde; configuration not given here) | 0.8 ng/test tube | 300 s | 300 s | 0/5 | 0% | 300 s | 300 s | 0/5 | 0% | considerably excellent anti-amnesic action |  | anti-amnesic action (in words) [1, 3]: no remarkable effect; Avoidance time 24 hrs. later ([1]; sample 10 μg/kg i.p.): 185.0 s; Avoidance time 48 hrs. later ([1]; sample 10 μg/kg i.p.): 189.0 s; No. of amnesic rats/No. of rats tested ([1]; sample 10 μg/kg i.p.): 2/5; Percentage amnesia ([1]; sample 10 μg/kg i.p.): 40%; Avoidance time 24 hrs. later ([1]; sample 250 μg/kg i.p.): 263 s; Avoidance time 48 hrs. later ([1]; sample 250 μg/kg i.p.): 284 s; No. of amnesic rats/No. of rats tested ([1]; sample 250 μg/kg i.p.): 1/5; Percentage amnesia ([1]; sample 250 μg/kg i.p.): 20%; Avoidance time 24 hrs. later ([1]; sample 1 mg/kg i.p.): 73.0 s; No. of amnesic rats/No. of rats tested ([1]; sample 1 mg/kg i.p.): 3/5; Percentage amnesia ([1]; sample 1 mg/kg i.p.): 60%; Avoidance time 48 hrs. later [2]: 103.0 s |
| CCCCCCCCCCCCCCCCCC(=O)NC(CC(C)C)C(=O)N1CCCC1C=O (stereo not drawn) [SUAM 1154, stearoyl-Leu-Pro-CHO] (Stearoyl-Leu-Pro-aldehyde; configuration not given here) | 1.0 ng/test tube |  |  |  |  | 300 s | 300 s | 0/10 | 0% | strong anti-amnesic action |  |  |
| CCCCCCCCCCCCCCCC(=O)NC(CC(C)C)C(=O)N1CCCC1C=O (stereo not drawn) [SUAM 1155, palmitoyl-Leu-Pro-CHO] (Palmitoyl-Leu-Pro-aldehyde; configuration not given here) | 0.7 ng/test tube |  |  |  |  | 300 s | 300 s | 0/10 | 0% | strong anti-amnesic action |  |  |
| CCCCCCCC/C=C\CCCCCCCC(=O)NC(C(=O)N1CCCC1C=O)C(C)C (stereo not drawn) [SUAM 1156, oleoyl-Val-Pro-CHO] (Oleoyl-Val-Pro-aldehyde; configuration not given here) | 0.7 ng/test tube |  |  |  |  | 300 s | 276.4 s | 1/10 | 10% | considerably excellent anti-amnesic action |  | anti-amnesic action (in words) [1, 3]: no remarkable effect; Avoidance time 24 hrs. later ([1]; sample 250 μg/kg i.p.): 240.6 s; Avoidance time 48 hrs. later ([1]; sample 250 μg/kg i.p.): 226.0 s; No. of amnesic rats/No. of rats tested ([1]; sample 250 μg/kg i.p.): 2/10; Percentage amnesia ([1]; sample 250 μg/kg i.p.): 20%; Avoidance time 24 hrs. later ([1]; sample 1 mg/kg i.p.): 184.0 s; No. of amnesic rats/No. of rats tested ([1]; sample 1 mg/kg i.p.): 5/10; Percentage amnesia ([1]; sample 1 mg/kg i.p.): 50%; Avoidance time 48 hrs. later [2]: 119.8 s |
| CCCCCCCC/C=C\CCCCCCCC(=O)NC(CC(C)C)C(=O)NC(CC(C)C)C(=O)N1CCCC1C=O (stereo not drawn) [SUAM 1158, oleoyl-Leu-Leu-Pro-CHO] (Oleoyl-Leu-Leu-Pro-aldehyde; configuration not given here) | 80.0 ng/test tube | 300 s | 300 s | 0/10 | 0% | 300 s | 300 s | 0/10 | 0% | strong anti-amnesic action | excellent effect |  |
| CCCCCCCC/C=C\CCCCCCCC(=O)NC(CCCC)C(=O)N1CCCC1C=O (stereo not drawn) [SUAM 1166, oleoyl-norLeu-Pro-CHO] (Oleoyl-[Nle]-Pro-aldehyde; configuration not given here) | 0.8 ng/test tube | 300 s | 300 s | 0/10 | 0% |  |  |  |  |  | strong anti-amnesic action |  |
| CCCCCCCC/C=C\CCCCCCCC(=O)NC(CCSC)C(=O)N1CCCC1C=O (stereo not drawn) [SUAM 1214, oleoyl-Met-Pro-CHO] (Oleoyl-Met-Pro-aldehyde; configuration not given here) | 0.6 ng/test tube | 300 s | 300 s | 0/10 | 0% | 300 s | 276.4 s | 1/10 | 10% |  | considerably excellent anti-amnesic action | anti-amnesic action (in words) [1, 3]: no remarkable effect; anti-amnesic action (in words) [1, 6]: remarkable anti-amnesic action; Avoidance time 24 hrs. later ([1]; sample 10 μg/kg i.p.): 300 s; Avoidance time 48 hrs. later ([1]; sample 10 μg/kg i.p.): 300 s; No. of amnesic rats/No. of rats tested ([1]; sample 10 μg/kg i.p.): 0/10; Percentage amnesia ([1]; sample 10 μg/kg i.p.): 0%; Avoidance time 24 hrs. later ([1]; sample 250 μg/kg i.p.): 240.6 s; Avoidance time 48 hrs. later ([1]; sample 250 μg/kg i.p.): 226.0 s; No. of amnesic rats/No. of rats tested ([1]; sample 250 μg/kg i.p.): 2/10; Percentage amnesia ([1]; sample 250 μg/kg i.p.): 20%; Avoidance time 24 hrs. later ([1]; sample 1 mg/kg i.p.): 73.0 s; No. of amnesic rats/No. of rats tested ([1]; sample 1 mg/kg i.p.): 6/10; Percentage amnesia ([1]; sample 1 mg/kg i.p.): 60%; Avoidance time 48 hrs. later [2]: 103.0 s |
| CCCCCCCC/C=C\CCCCCCCC(=O)N1CCCC1C(=O)N1CCCC1C=O (stereo not drawn) [SUAM 1215, Oleoyl-Pro-Pro-CHO] (Oleoyl-Pro-Pro-aldehyde; configuration not given here) | 0.3 ng/test tube | 300 s | 300 s | 0/10 | 0% |  |  |  |  |  | strong anti-amnesic action | anti-amnesic action (in words) [1, 6]: strong anti-amnesic action; Avoidance time 24 hrs. later ([1]; sample 10 μg/kg i.p.): 300 s; Avoidance time 48 hrs. later ([1]; sample 10 μg/kg i.p.): 300 s; No. of amnesic rats/No. of rats tested ([1]; sample 10 μg/kg i.p.): 0/10; Percentage amnesia ([1]; sample 10 μg/kg i.p.): 0% |
| CCCCCCCC/C=C\CCCCCCCC(=O)NC(CCCCNC(=O)OCc1ccccc1)C(=O)N1CCCC1C=O (stereo not shown) [SUAM 1216, oleoyl-Lys(Z)-Pro-CHO] (Oleoyl-Lys(Cbz)-Pro-aldehyde; configuration not given here) | 0.6 ng/test tube |  |  |  |  |  |  |  |  |  |  |  |
| CCCCCCCC/C=C\CCCCCCCC(=O)NC(CCC=O)C(=O)N1CCCC1C=O (stereo not shown) [SUAM 1217, oleoyl-Glu(CHO)-Pro-CHO] | 0.3 ng/test tube |  |  |  |  |  |  |  |  |  |  |  |
| linoleoyl-Leu-Pro-CHO [SUAM 1157] | 0.6 ng/test tube |  |  |  |  |  |  |  |  |  |  |  |
